Experiments:
[1] = test system: NK-YS (IL-2 2.5 ng/mL); experiment: drug sensitivity score (DSS) (DSS units); higher = more sensitive; extreme values may be limits of the assay; settings: 72 h
[2] = test system: normal primary NK cells, pool 2 (3 donors) (IL-2 2.5 ng/mL); experiment: as above; settings: 72 h
[3] = test system: NK-92 (IL-2 2.5 ng/mL); experiment: as above; settings: 72 h
[4] = test system: KAI3 (IL-2 2.5 ng/mL); experiment: as above; settings: 72 h
[5] = test system: YT (IL-2 2.5 ng/mL); experiment: as above; settings: 72 h
[6] = test system: normal primary NK cells, pool 1 (3 donors), resting (IL-2 0 ng/mL); experiment: as above; settings: 72 h
[7] = test system: NKL (IL-2 2.5 ng/mL); experiment: as above; settings: 72 h
[8] = test system: normal primary NK cells, pool 1 (3 donors) (IL-2 2.5 ng/mL); experiment: as above; settings: 72 h
[9] = test system: normal primary NK cells, pool 3 (3 donors) (IL-2 2.5 ng/mL); experiment: as above; settings: 72 h
[10] = test system: IMC-1 (IL-2 20 ng/mL); experiment: as above; settings: 72 h
[11] = test system: SNK-6 (IL-2 2.5 ng/mL); experiment: as above; settings: 72 h
[12] = test system: KHYG-1 (IL-2 2.5 ng/mL); experiment: as above; settings: 72 h
[13] = test system: DERL-7 (IL-2 2.5 ng/mL); experiment: as above; settings: 72 h
[14] = test system: normal NK cells expanded with K562-aAPC; experiment: as above; settings: 72 h; IL-2 2.5 ng/mL
Experimental: (§1)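 Drug sensitivity and resistance testing on K562-aAPC-expanded normal NK cells: 5 concentrations (10-fold steps over a 10,000-fold range), 72 h at 37 °C, viability by CellTiter-Glo normalised to DMSO and benzethonium chloride controls; DSS from the fitted curve.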

[15] = test system: NK-YS (IL-2 2.5 ng/mL); experiment: percent inhibition of viability; higher = more inhibition; settings: 72 h
[16] = test system: normal primary NK cells, pool 2 (3 donors) (IL-2 2.5 ng/mL); experiment: as above; settings: 72 h
[17] = test system: NK-92 (IL-2 2.5 ng/mL); experiment: as above; settings: 72 h
[18] = test system: KAI3 (IL-2 2.5 ng/mL); experiment: as above; settings: 72 h
[19] = test system: YT (IL-2 2.5 ng/mL); experiment: as above; settings: 72 h
[20] = test system: normal primary NK cells, pool 1 (3 donors), resting (IL-2 0 ng/mL); experiment: as above; settings: 72 h
[21] = test system: NKL (IL-2 2.5 ng/mL); experiment: as above; settings: 72 h
[22] = test system: normal primary NK cells, pool 1 (3 donors) (IL-2 2.5 ng/mL); experiment: as above; settings: 72 h
[23] = test system: normal primary NK cells, pool 3 (3 donors) (IL-2 2.5 ng/mL); experiment: as above; settings: 72 h
[24] = test system: IMC-1 (IL-2 20 ng/mL); experiment: as above; settings: 72 h
[25] = test system: SNK-6 (IL-2 2.5 ng/mL); experiment: as above; settings: 72 h
[26] = test system: KHYG-1 (IL-2 2.5 ng/mL); experiment: as above; settings: 72 h
[27] = test system: DERL-7 (IL-2 2.5 ng/mL); experiment: as above; settings: 72 h
[28] = test system: normal NK cells expanded with K562-aAPC; experiment: as above; settings: 72 h, IL-2 2.5 ng/mL
Experimental: as §1

CCCc1cc(C)[nH]c(=O)c1CNC(=O)c1cc(-c2ccnc(N3CCN(C)CC3)c2)cc2c1cnn2C(C)C [GSK343] (max concentration tested 10000 nM)
Settings | drug sensitivity score
[1] | 6.26
[2] | 0
[3] | 5.45
[4] | 6.8
[5] | 6
[6] | 6.86
[7] | 5.27
[8] | 6.41
[9] | 2.74
[10] | 4.86
[11] | 5.02
[12] | 6.07
[13] | 6.76
[14] | 5.07

percent inhibition of viability [%]
Settings | 1 nM | 10 nM | 100 nM | 1000 nM | 10000 nM
[15] | -5.74 | -3.63 | -4.33 | 4.65 | 101
[16] | -8.31 | -4.46 | -6.41 | -0.99 | -0.1
[17] | -15.4 | -9.54 | -9.12 | -0.4 | 98.1
[18] | -6.07 | -1.68 | -2.65 | 8.26 | 99.1
[19] | -0.53 | -1.05 | -6.88 | 3.69 | 99
[20] | -0.38 | -4.24 | -14.9 | 10.5 | 92.6
[21] | -9.45 | -14.8 | -10.7 | -3.16 | 99.2
[22] | 2.11 | -6.04 | -3.32 | 7.91 | 93.1
[23] | -4.17 | -3.24 | -2 | -6.83 | 59.2
[24] | -6.79 | -3.69 | -6.5 | -9.82 | 99.4
[25] | -12.3 | 5.94 | -7.63 | -6.91 | 99.4
[26] | 0.04 | 1.72 | -6.82 | 3.86 | 99.8
[27] | 3.94 | -4.82 | 3.13 | 8.76 | 96.6
[28] | -1.65 | -5.79 | -7.46 | -5.85 | 99.2

Cc1cccc(-c2nn3c(c2-c2ccnc4ccc(C(N)=O)cc24)CCC3)n1 [Galunisertib] (max concentration tested 1000 nM)
Settings | drug sensitivity score
[1] | 0
[2] | 0
[3] | 0
[4] | 0
[5] | 0
[6] | 1.02
[7] | 0
[8] | 0
[9] | 0
[10] | 0
[11] | 0
[12] | 0
[13] | 0
[14] | 0

percent inhibition of viability [%]
Settings | 0.1 nM | 1 nM | 10 nM | 100 nM | 1000 nM
[15] | -4.82 | -4.05 | -5.75 | -3.29 | -5.06
[16] | -8.56 | -7.94 | -11.5 | -15 | -20.2
[17] | 6.42 | -19.6 | -7 | -11.1 | -5.09
[18] | -4.52 | 0.48 | -2.74 | -1.09 | -2.65
[19] | -3.06 | -2.63 | -3.58 | 1.78 | 1.58
[20] | -3.02 | -1.34 | -8.83 | 11.9 | 15
[21] | -14.8 | -16.4 | -19.5 | -16.8 | -23.6
[22] | 0.38 | -7.01 | -9.1 | -2.92 | -15.2
[23] | -11 | -5.65 | -10 | -14.2 | -19.7
[24] | -7.13 | -0.55 | -5.27 | -8.99 | -4.14
[25] | 4.83 | 20.7 | 0 | -0.11 | -19.9
[26] | -4.42 | -0.98 | -7.17 | 0.3 | -1.95
[27] | 5.62 | 1.68 | 4.85 | -1.77 | 1.92
[28] | -0.13 | -4.95 | -1.88 | -4.21 | -16.8

NC(=O)NO [Hydroxyurea] (max concentration tested 100000 nM)
Settings | drug sensitivity score
[1] | 1.89
[2] | 0.1
[3] | 6.31
[4] | 8.49
[5] | 0.2
[6] | 4.95
[7] | 6.01
[8] | 0
[9] | 0
[10] | 0
[11] | 0
[12] | 1.16
[13] | 0.03
[14] | 4.07

percent inhibition of viability [%]
Settings | 10 nM | 100 nM | 1000 nM | 10000 nM | 100000 nM
[15] | -0.41 | -2.69 | -1.46 | 3.98 | 29.3
[16] | 1.52 | 0.13 | 10.8 | 4.35 | 13.4
[17] | 6.26 | 6.63 | 2.07 | 31.3 | 48.5
[18] | 24.5 | 13.1 | 12.7 | 20.9 | 51.8
[19] | -10.8 | -9.74 | -3.92 | 0.46 | 14.2
[20] | 15.8 | 15.8 | 15.4 | 15.8 | 15.6
[21] | 4.79 | -0.36 | 15 | 24.1 | 48.3
[22] | -2.1 | 5.26 | 3.61 | -8.28 | 4.04
[23] | 6.75 | 1.29 | 8.4 | -5.82 | 7.32
[24] | -6.14 | -2.56 | -2.39 | -0.1 | 9.95
[25] | 15.2 | -7.82 | -13.1 | -12.9 | 1.36
[26] | -10.9 | -7.34 | -3.16 | 8.85 | 17.1
[27] | 2.03 | -0.08 | 8.03 | -3.4 | 12.6
[28] | 2.1 | -5.76 | -2.1 | 8.98 | 49.1

O=P1(NCCCl)OCCCN1CCCl (stereo not given) [Ifosfamide] (max concentration tested 10000 nM)
Settings | drug sensitivity score
[1] | 0
[2] | 0
[3] | 0
[4] | 0
[5] | 0
[6] | 0.02
[7] | 0
[8] | 0
[9] | 0
[10] | 0
[11] | 0
[12] | 0
[13] | 0
[14] | 0

percent inhibition of viability [%]
Settings | 1 nM | 10 nM | 100 nM | 1000 nM | 10000 nM
[15] | -1.93 | -4.42 | -4.13 | 1.8 | -4.59
[16] | -7.91 | -9.22 | -9.46 | -8.83 | -4.62
[17] | -16.3 | -6.46 | -7.42 | -21.1 | -17.7
[18] | -7.61 | -11.2 | -10.2 | -6.62 | -0.66
[19] | -4.47 | -6.22 | -6.55 | -4.33 | -5.88
[20] | -18.3 | -6.52 | 1.44 | -5.18 | 12.7
[21] | -15.9 | -21.4 | -20.8 | -20.4 | -25.2
[22] | -11.2 | -7.35 | -2.79 | -2.71 | 1.61
[23] | -13.4 | -7.36 | -10.1 | -8.46 | -1.46
[24] | -7.45 | -2.99 | -8.91 | -4.46 | -9.5
[25] | 9.44 | 6.95 | -7.05 | -1.13 | -14.1
[26] | -2.87 | -4.29 | -7.54 | -5.28 | -6.85
[27] | -5.51 | -7.54 | -1.33 | -3.22 | -6.83
[28] | -2.46 | -7.15 | -2.89 | -5.04 | -1.58

CC(C)Cn1cnc2c(N)nc3ccccc3c21 [Imiquimod] (max concentration tested 2500 nM)
Settings | drug sensitivity score
[1] | 0.38
[2] | 0.45
[3] | 0.3
[4] | 0.57
[5] | 0
[6] | 0
[7] | 0
[8] | 0
[9] | 0
[10] | 1.48
[11] | 9.47
[12] | 0.26
[13] | 0
[14] | 1.27

percent inhibition of viability [%]
Settings | 0.25 nM | 2.5 nM | 25 nM | 250 nM | 2500 nM
[15] | -0.76 | -2.23 | 5.71 | 6 | 16.1
[16] | -8 | -6.73 | -8.32 | -4.68 | 20.8
[17] | -7.9 | -11.3 | -5.41 | 5.55 | 12.3
[18] | -2.07 | -8.41 | 6.25 | 5.37 | 17.9
[19] | -4.4 | -3 | 5.75 | 3.31 | 4.52
[20] | -4.66 | 7.46 | -14.7 | -14.5 | -19.1
[21] | -2.54 | -14.7 | -1.93 | 3.67 | 1.08
[22] | -14.4 | 5.91 | -7.15 | -9.14 | 5.82
[23] | -14.7 | -9.92 | -6.17 | -5.82 | 6.93
[24] | 2.11 | -3.32 | 4.26 | 10.8 | 22.2
[25] | 10.3 | -13.6 | 12.2 | 44 | 57.8
[26] | -3 | -3.08 | 2.45 | 6.32 | 13.8
[27] | -5 | 4.44 | -3.41 | 4.83 | -1.82
[28] | -2.97 | -4.12 | -1.05 | 14.8 | 11.3

Reference: the supplement of paper PMC5908809
